Experimental data: patent US4251658A, “3-(1-Pyrazolyl)-pyridazine derivatives” (Richter Gedeon Vegyeszeti Gyar Rt., priority 1977, dated 1981)

How the values were obtained:
[1] = Hypotensive action in narcotized cats; format: in vivo; conditions: pentobarbital narcosis
Description: The substances were administered in doses of 5, 2.5 and 1 mg./kg., respectively, and Hydralazine (1-hydrazinophthalazine hydrochloride) was used as reference compound.

in vivo = conditions: mouse, mice, oral, read-out: Acute oral toxicity on mice LD50
[2] = target: prostaglandin-A isomerase (PGAI); experiment: Prostaglandin-A isomerase (PGAI) inhibiting action, PGAI preparation from the blood-plasma of pigs; format: biochemical; conditions: read-out: I50% inhibiting levels in final concentrations, PGAI
Text: (§1) The I50%, i.e. the index of inhibition is defined as the concentration of the substance inhibiting to 50% the function of the corresponding enzyme.

[3] = Systolic blood pressure in the caudal artery of spontaneously hypertensive (Wistar-Okamoto) rats, oral treatment; format: in vivo; conditions: for decrease in systolic blood pressure: oral
[4] = target: T1, prostaglandin dehydrogenase (PGDH) (Sus scrofa, UniProt A0ACM8QJV0); experiment: Prostaglandin dehydrogenase (PGDH) inhibiting action, PGDH preparation from pig-lung; format: biochemical; conditions: read-out: I50% inhibiting levels in final concentrations, PGDH
T1 construct: PGDH preparation from pig-lung; from tissue; host or cells: pig lung
T1 sequence (A0ACM8QJV0 1-266): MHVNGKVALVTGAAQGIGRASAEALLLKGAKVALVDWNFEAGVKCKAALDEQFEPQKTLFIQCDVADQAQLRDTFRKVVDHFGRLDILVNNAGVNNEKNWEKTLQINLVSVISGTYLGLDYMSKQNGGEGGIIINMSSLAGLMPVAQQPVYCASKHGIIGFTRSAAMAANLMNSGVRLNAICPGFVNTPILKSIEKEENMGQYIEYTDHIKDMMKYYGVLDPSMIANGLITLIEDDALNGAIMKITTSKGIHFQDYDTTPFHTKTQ
Text: as §1

Row | SMILES | Decrease in blood pressure in Hgmm by 1 mg./kg. [1] | LD50 (in vivo) | IC50 [2] | also measured
1 | CCOC(=O)c1cnn(-c2ccc(NCc3ccccc3)nn2)c1N [Example 7, 3-Benzylamino-A] | -15 Hgmm | 1000 mg/kg |  | 
2 | Cl.NNc1nncc2ccccc12 [Hydralazine, 1-hydrazinophthalazine hydrochloride, reference compound] | -40 Hgmm |  | 90 µM | decrease in systolic blood pressure ([3]; 10 mg./kg. (reference), after 2 hours): 21%; decrease in systolic blood pressure ([3]; 10 mg./kg. (reference), after 5 hours): 22%; decrease in systolic blood pressure ([3]; 10 mg./kg. (reference), after 24 hours): 15%
3 | NNC(=O)c1cnn(-c2ccc(N(CCO)CCO)nn2)c1N [Example 31, 3-[bis(2-Hydroxyethyl)-amino]-6-(4-carbazoyl-5-amino-1-pyrazolyl)-pyridazin] | -10 Hgmm | 250 mg/kg |  | 
4 | CCOC(=O)c1cnn(-c2ccc(NCc3ccco3)nn2)c1N [Example 6, 3-Furfurylamino-A] |  |  | 50 µM | IC50 [4]: 55 µM
5 | CCOC(=O)c1cnn(-c2ccc(NCc3ccncc3)nn2)c1N [Example 18, 3-(4-Pyridylmethylamino)-A] |  |  | 36 µM | 
6 | NNC(=O)c1cnn(-c2cccnn2)c1N [Example 32] | -10 Hgmm | 200 mg/kg |  | 
7 | CCOC(=O)c1cnn(-c2ccc(NC(C)c3ccccc3)nn2)c1N (centres unmarked) [Example 20, 3-(1-Phenylethylamino)-A] |  |  | 180 µM | 
8 | CCOC(=O)c1cnn(-c2ccc(NCc3cccnc3)nn2)c1N [Example 17, 3-(3-Pyrdiylmethylamino)-A] |  |  | 25 µM | IC50 [4]: 200 µM
9 | CCOC(=O)c1cnn(-c2ccc(NCCN(CC)CC)nn2)c1N [Example 11, 3-(2-Diethylaminoethylamino)-A] |  |  | 44 µM | 
10 | CCOC(=O)c1cnn(-c2ccc(NC3CCCCC3)nn2)c1N [Example 5, 3-Cyclohexylamino-A] |  |  | 100 µM | 
11 | CCOC(=O)c1cnn(-c2ccc(NCc3ccccn3)nn2)c1N [Example 16, 3-(2Pyridylmethylamino)-A] |  |  | 75 µM | IC50 [4]: 150 µM
12 | CN(N)c1ccc(-n2ncc(C#N)c2N)nn1 [Example 30, 3-(1-methylhydrazino)-6-(4-cyano-5-amino-1-pyrazolyl)-pyridazine] | -40 Hgmm | 200 mg/kg |  | tachycardia ([3]; against Hydralazine): does not cause any significant tachycardia; decrease in systolic blood pressure ([3]; 20 mg./kg., after 2 hours): 31%; decrease in systolic blood pressure ([3]; 20 mg./kg., after 5 hours): 16%; decrease in systolic blood pressure ([3]; 20 mg./kg., after 24 hours): 15%
13 | COc1ccc(CCNc2ccc(-n3ncc(C(=O)NN)c3N)nn2)cc1OC [Example 33, 3-(3,4-Dimethoxyphenylethyl-amino)-B] | -10 Hgmm | ~150 mg/kg |  | 
